The values below come from patent EP0674651B1, “SUBSTITUTED 6-AZAANDROSTENONES” (priority 1992, dated 1994).

A word on the IC50: it is the concentration that inhibits the measured activity by half. A lower IC50 goes with greater potency.

Test [1] addresses T1, human type 1 5α-reductase (Homo sapiens, UniProt P18405).
T1 sequence (P18405 1-259): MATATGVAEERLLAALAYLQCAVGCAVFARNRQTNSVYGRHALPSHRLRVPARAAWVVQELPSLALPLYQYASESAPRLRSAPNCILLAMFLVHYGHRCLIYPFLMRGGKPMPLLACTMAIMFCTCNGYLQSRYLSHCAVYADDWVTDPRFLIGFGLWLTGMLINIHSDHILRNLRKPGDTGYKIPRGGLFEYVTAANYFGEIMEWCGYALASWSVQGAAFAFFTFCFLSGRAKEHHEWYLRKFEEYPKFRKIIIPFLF
Briefly: 5α-reductase in vitro inhibitory activity, human type 1.

The target of test [2] is T2, human type 2 5α-reductase (Homo sapiens, UniProt P31213).
T2 sequence (P31213 1-254): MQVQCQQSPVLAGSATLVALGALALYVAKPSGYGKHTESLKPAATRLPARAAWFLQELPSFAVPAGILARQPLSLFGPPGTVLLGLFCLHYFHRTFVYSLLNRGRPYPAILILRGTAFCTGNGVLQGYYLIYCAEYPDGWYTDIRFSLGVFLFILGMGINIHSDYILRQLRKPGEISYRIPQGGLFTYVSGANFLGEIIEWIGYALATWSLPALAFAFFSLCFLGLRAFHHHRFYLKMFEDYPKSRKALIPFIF
Briefly: 5α-reductase in vitro inhibitory activity, human type 2.

For `C[C@]12CC[C@H]3[C@@H](CNC4=CC(=O)CC[C@@]43C)[C@@H]1CC[C@@H]2C(=O)NC1(c2ccc3c(c2)OCO3)CCCCC1` [Compound 124, 17β-N-1-(3,4-Methylenedioxyphenyl)cyclohexyl-carbamoyl-6-azaandrost-4-en-3-one], the 50% inhibitory concentration (IC50) in test [1] is 0.01 to 0.1 µM; in test [2] it was under 0.01 µM.
Regarding `C[C@]12CC[C@H]3[C@@H](CNC4=CC(=O)CC[C@@]43C)[C@@H]1CC[C@@H]2CNC(=O)NC12CC3CC(CC(C3)C1)C2` [Compound 98, 17β-Aminomethyl-(1-adamantylurea)-6-azaandrost-4-en-3-one], the IC50 in test [1] and in test [2] was under 0.01 µM in each case.
Take `CCC1(CC)CC1(NC(=O)[C@H]1CC[C@H]2[C@@H]3CNC4=CC(=O)CC[C@]4(C)[C@H]3CC[C@]12C)c1ccc(C(F)(F)F)cc1` (stereo partly drawn) [Compound 131, 17β-N-(1-(4-Trifluoromethylphenyl)-2,2-diethyl)cyclopropyl-carbamoyl-6-azaandrost-4-en-3-one]: the IC50 in test [1] and in test [2] was under 0.01 µM in each case.
With `C[C@]12CC[C@H]3[C@@H](CNC4=CC(=O)CC[C@@]43C)[C@@H]1CC[C@@H]2C(=O)NC1(c2ccc(Cl)cc2)CCCCC1` [Compound 146, 17β-N-1-(4-Chlorophenyl)cyclohexyl-carbamoyl-6-azaandrost-4-en-3-one], the IC50 in test [1] and in test [2] was under 0.01 µM in each case.
In the case of `CC(C)(C)c1ccc(Br)cc1NC(=O)[C@H]1CC[C@H]2[C@@H]3CNC4=CC(=O)CC[C@]4(C)[C@H]3CC[C@]12C` [Compound 74, 17β-N-(5-Bromo-2-t-butyl)phenyl-carbamoyl-6-azaandrost-4-en-3-one], the concentration for half-maximal inhibition (IC50) in test [1] and in test [2] was under 0.01 µM in each case.
With `CC(C)(C)c1ccc(C2(NC(=O)[C@H]3CC[C@H]4[C@@H]5CNC6=CC(=O)CC[C@]6(C)[C@H]5CC[C@]34C)CCSCC2)cc1` [Compound 143, 17β-N-4-(4-t-Butylphenyl)tetrahydrothiopyranyl-carbamoyl-6-azaandrost-4-en-3-one], the IC50 in test [1] and in test [2] was under 0.01 µM throughout.
For `C[C@]12CC[C@H]3[C@@H](CNC4=CC(=O)CC[C@@]43C)[C@@H]1CC[C@@H]2C(=O)NC1(c2ccc(C(F)(F)F)cc2)CCCC1` [Compound 106, 17β-N-1-(4-Trifluoromethylphenyl)cyclopentyl-carbamoyl-6-azaandrost-4-en-3-one], the IC50 in test [1] and in test [2] was under 0.01 µM throughout.
On to `C[C@]12CC[C@H]3[C@@H](CNC4=CC(=O)CC[C@@]43C)[C@@H]1CC[C@@H]2C(=O)NC1(c2ccc(F)cc2)CCCC1` [Compound 104, 17β-N-1-(4-Fluorophenyl)cyclopentyl-carbamoyl-6-azaandrost-4-en-3-one], for which the IC50 in test [1] is 0.01 to 0.1 µM; in test [2] it was under 0.01 µM.
For `CC1=C2NC[C@H]3[C@@H]4CC[C@H](C(=O)Nc5cc(C(C)(C)C)ccc5C(C)(C)C)[C@@]4(C)CC[C@@H]3[C@@]2(C)CCC1=O` [Compound 118, 17β-N-(2,5-Di-t-butyl)phenyl-carbamoyl-6-azaandrost-4-methyl-4-en-3-one] the same measures were under 0.01 µM and under 0.01 µM.
`CC(C)(C)c1ccc(C2(NC(=O)[C@H]3CC[C@H]4[C@@H]5CNC6=C(Cl)C(=O)CC[C@]6(C)[C@H]5CC[C@]34C)CCCCC2)cc1` [Compound 139, 17β-N-1-(4-t-Butylphenyl)cyclohexyl-carbamoyl-6-azaandrost-4-chloro-4-en-3-one]: the IC50 in test [1] and in test [2] was under 0.01 µM throughout.
On to `CC(C)(C)c1ccc(C(F)(F)F)cc1NC(=O)[C@H]1CC[C@H]2[C@@H]3CNC4=C(Cl)C(=O)CC[C@]4(C)[C@H]3CC[C@]12C` [Compound 127, 17β-N-(2-t-Butyl-5-trifluoromethyl)phenyl-carbamoyl-6-azaandrost-4-chloro-4-en-3-one], for which the IC50 in test [1] and in test [2] was under 0.01 µM throughout.
As to `C[C@]12CC[C@H]3[C@@H](CNC4=CC(=O)CC[C@@]43C)[C@@H]1CC[C@@H]2C(=O)Nc1cc(C(F)(F)F)ccc1Oc1ccc(Cl)cc1` [Compound 81, 17β-N-(2-(O-4-Chlorophenyl)-5-trifluoromethyl)phenyl-carbamoyl-6-azaandrost-4-en-3-one], the IC50 in test [1] is 0.01 to 0.1 µM; in test [2] it was under 0.01 µM.
The like results for `COc1ccccc1Oc1ccc(C(F)(F)F)cc1NC(=O)[C@H]1CC[C@H]2[C@@H]3CNC4=CC(=O)CC[C@]4(C)[C@H]3CC[C@]12C` [Compound 80] were, in that order, 0.01 to 0.1 µM and under 0.01 µM.
`COc1cc(Cl)cc(NC(=O)[C@H]2CC[C@H]3[C@@H]4CNC5=CC(=O)CC[C@]5(C)[C@H]4CC[C@]23C)c1` [Compound 113, 17β-N-(3-Methoxy-5-chloro)phenyl-carbamoyl-6-azaandrost-4-en-3-one]: the figures for the 50% inhibitory concentration (IC50) in test [1] and in test [2] were 0.01 to 0.1 µM and under 0.01 µM, respectively.
As for `C[C@]12CC[C@H]3[C@@H](CNC4=CC(=O)CC[C@@]43C)[C@@H]1CC[C@@H]2C(=O)NCCSc1ccccc1` [Compound 23, 17β-N-2-(Phenylthio)ethyl-carbamoyl-6-azaandrost-4-en-3-one], the 50% inhibitory concentration (IC50) was 0.01 to 0.1 µM in test [1] and under 0.01 µM in test [2].
For `COc1ccc(C(C)(C)C)cc1NC(=O)[C@H]1CC[C@H]2[C@@H]3CNC4=CC(=O)CC[C@]4(C)[C@H]3CC[C@]12C` [Compound 128, 17β-N-(2-Methoxy-5-t-butyl)phenyl-carbamoyl-6-azaandrost-4-en-3-one] the same measures were under 0.01 µM and under 0.01 µM.
As for `CCc1cc(C#N)ccc1NC(=O)[C@H]1CC[C@H]2[C@@H]3CNC4=CC(=O)CC[C@]4(C)[C@H]3CC[C@]12C` [Compound 84, 17β-N-(2-Ethyl-4-cyano)phenyl-carbamoyl-6-azaandrost-4-en-3-one], the 50% inhibitory concentration (IC50) in test [1] is 0.01 to 0.1 µM; in test [2], under 0.01 µM.
In the case of `CC1=C2NC[C@H]3[C@@H]4CC[C@H](C(=O)NC5(c6ccc(Cl)cc6)CCCC5)[C@@]4(C)CC[C@@H]3[C@@]2(C)CCC1=O` [Compound 125, 17β-N-1-(4-Chlorophenyl)cyclopentyl-carbamovl-6-azaandrost-4-methyl-4-en-3-one], the IC50 in test [1] and in test [2] was under 0.01 µM throughout.
For the molecule `C[C@]12CC[C@H]3[C@@H](CNC4=CC(=O)CC[C@@]43C)[C@@H]1CC[C@@H]2C(=O)Nc1c(Cl)cc(Cl)cc1Cl` [Compound 58, 17β-N-(2,4,6-Trichloro)phenyl-carbamoyl-6-azaandrost-4-en-3-one], the half-inhibitory concentration (IC50) in test [1] was 0.01 to 0.1 µM; in test [2] it was under 0.01 µM.
For `CCC(C)(C)c1ccc(Oc2ccccc2)c(NC(=O)[C@H]2CC[C@H]3[C@@H]4CNC5=CC(=O)CC[C@]5(C)[C@H]4CC[C@]23C)c1` [Compound 83, 17β-N-(2-(O-Phenyl)-5-(1,1-dimethyl)propyl)phenyl-carbamoyl-6-azaandrost-4-en-3-one] the same measures were 0.01 to 0.1 µM and under 0.01 µM.
The like results for `C[C@]12CC[C@H]3[C@@H](CNC4=CC(=O)CC[C@@]43C)[C@@H]1CC[C@@H]2C(=O)Nc1cccc(C(=O)O)c1` [Compound 137, 17β-N-(3-Carboxy)phenyl-carbamoyl-6-azaandrost-4-en-3-one] were, in that order, over 0.1 µM and under 0.01 µM.
In the case of `C[C@]12CC[C@H]3[C@@H](CNC4=CC(=O)CC[C@@]43C)[C@@H]1CC[C@@H]2C(=O)Nc1cccc(C#N)c1` [Compound 107, 17β-N-(3-Cyano)phenyl-carbamoyl-6-azaandrost-4-en-3-one], the half-inhibitory concentration (IC50) in test [1] was over 0.1 µM; in test [2] it was under 0.01 µM.
For `CC(C)(C)c1ccc(-c2ccc(C(F)(F)F)cc2NC(=O)[C@H]2CC[C@H]3[C@@H]4CNC5=CC(=O)CC[C@]5(C)[C@H]4CC[C@]23C)cc1` [Compound 135] the same measures were over 0.1 µM and under 0.01 µM.
For `C[C@]12CC[C@H]3[C@@H](CNC4=CC(=O)CC[C@@]43C)[C@@H]1CC[C@@H]2C(=O)Nc1cc(C(F)(F)F)ccc1Br` [Compound 61, 17β-N-(2-Bromo-5-trifluoromethyl)phenyl-carbamoyl-6-azaandrost-4-en-3-one] the same measures were 0.01 to 0.1 µM and under 0.01 µM.
For `CC(C)(C)c1ccc(NC(=O)[C@H]2CC[C@H]3[C@@H]4CNC5=CC(=O)CC[C@]5(C)[C@H]4CC[C@]23C)cc1` [Compound 108, 17β-N-(4-t-Butyl)phenyl-carbamoyl-6-azaandrost-4-en-3-one] the same measures were 0.01 to 0.1 µM and under 0.01 µM.
Turning to `CC(C)(C)c1ccc(C(NC(=O)[C@H]2CC[C@H]3[C@@H]4CNC5=CC(=O)CC[C@]5(C)[C@H]4CC[C@]23C)c2ccccc2)cc1` (stereo partly drawn) [Compound 67, 17β-N-(1 -Phenyl-1-(4-t-butyl)phenyl)methyl-carbamoyl-6-azaandrost-4-en-3-one], the figures for the IC50 in test [1] and in test [2] were over 0.1 µM and under 0.01 µM, respectively.
For `C[C@]12CC[C@H]3[C@@H](CNC4=CC(=O)CC[C@@]43C)[C@@H]1CC[C@@H]2C(=O)N(C(=O)NC1CCCCC1)C1CCCCC1` [Compound 96, 17β-(N-cyclohexyl-N-(N-cyclohexylcarbamoyl))-carbamoyl-6-azaandrost-4-en-3-one] the same measures were 0.01 to 0.1 µM and under 0.01 µM.
The like results for `CC(NC(=O)[C@H]1CC[C@H]2[C@@H]3CNC4=CC(=O)CC[C@]4(C)[C@H]3CC[C@]12C)(c1ccc(Cl)cc1)c1ccc(Cl)cc1` [Compound 66, 17β-N-(1,1-Di-4-chlorophenyl)ethyl-carbamoyl-6-azaandrost-4-en-3-one] were, in that order, over 0.1 µM and under 0.01 µM.
